Data from patent US20150250864A1, “ANTI-CANCER VACCINES” (Board of Regents, The University of Texas System, priority 2012, published 2015).

Tests used:
Format in all cases: cell-based, human
T cells in PBMCs [1] = assay: IFN-γ release by ELISA from PBMC stimulated with peptides or protein; conditions: for IFN-γ release (OD values): stimulated PBMC, FIG. 21A
From the text: FIG. 17. T cell stimulation by HERV-K peptides. Peptides (p73-76 and p18-135) or HERV-K SU fusion proteins were used to stimulate PBMC and evaluated in vitro for their ability to stimulate T cells in PBMCs from healthy subjects (ND1007083; left) and/or cancer patients (BC 243; right), based on interferon-γ(IFN-γ) release by ELISA. KLH peptide and GST protein were used as controls. Other negative controls included media only, DMSO, and PBS.
FIG. 18. T cell stimulation by HERV-K peptides. Peptides (p73-76: left; and p18-135: middle) or HERV-K SU fusion proteins (right) were used to stimulate PBMC and evaluated in vitro for their ability to stimulate T cells in PBMCs from healthy subjects and/or cancer patients (BC 243; middle), based on interferon-γ (IFN-γ) release by ELISA. OD values of interferon-γ (IFN-γ) release were compared between normal donors (ND447549, ND1001366, and ND1007083) and cancer patients (OC222, OC 210, OC212, and BC243). OC is ovarian cancer and BC is breast cancer
FIGS. 21A-C. T Cell Stimulation. 9 mer Peptides (HERVK-3, HERVK-4, HERVK-11, and HERVK-18; see Table 1), p73-76 and p18-135 (Table 1 178 and 179), or HERV-K SU fusion proteins were used to stimulate PBMC and evaluated in vitro for their ability to stimulate T cells in PBMCs from healthy subjects and/or cancer patients, based on IFN-γ and Granzyme B release by ELISA. (FIG. 21A) OD values of IFN-γ release were compared in a normal donor (ND291812). (FIG. 21B) OD values of IFN-γ release were compared between a normal donor (ND291817) and an ovarian cancer patient (OC153). (FIG. 21C) OD values of Granzyme B release were compared between a normal donor (ND291817) and an ovarian cancer patient (OC153). Each dot represents an individual clone. Negative controls measured release of effector molecules from cancer cells after treatment with supernatants obtained from PBMCs without stimulation with HERV-K peptides or protein; positive controls were stimulated with PMA/ONO.
Cancer patients were enrolled to evaluate HERV-K as a tumor associated antigen target. Patients provided written informed consent as part of an approved protocol (LAB04-0083) at MD Anderson Cancer Center prior to commencing the studies. Normal healthy donor control blood samples were obtained from Gulf Coast Regional Blood Center, Houston Tex. 40 mL of peripheral blood was obtained from each patient, and peripheral blood mononuclear cells (PBMCs) were isolated by density gradient centrifugation using Histopaque-1077 (Sigma-Aldrich; USA). HLA-A*02 expression in PBMCs obtained from cancer patients and healthy subjects was determined by flow cytometry with PE Mouse anti-human HLA-A2 mAb BB7.2 (BD Pharmingen; San Diego, Calif., USA). Mouse IgG2b was used as an isotype control. PBMCs (5×10^5 cells/well) from either healthy subjects or cancer patients were incubated with Peptide #18-135 ([…]; SEQ ID NO: 178), Peptide #73-76 ([…]; SEQ ID NO: 179) or KLH as control peptide) or proteins (HERV-K env SU protein or GST protein as control) at concentrations of 40 μg/mL in 96-well U-bottom microplates (BD; Franklin Lakes, N.J., USA) in 100 μL of T-cell medium (TCM), consisting of RPMI 1640 (Mediatech; Manassas, Va., USA), 10% human AB serum (Valley Biomedical, Winchester, USA), […] 2-mercaptoethanol, 100 IU/mL interleukin-2 (IL-2), and 0.1 mM MEM nonessential amino acid solution (Invitrogen; Grand Island, N.Y., USA). Half of the TCM was removed and replaced with fresh TCM containing peptides (20 μg/mL) on day 7. After 14 days of culture, the supernatants from cell culture media (PBMC pulsed with peptides or proteins) were harvested and tested for their ability to produce IFN-gamma or IL-2, and granzyme B release was also determined by enzyme-linked immunosorbent assay (ELISA) assay. In order to detect the secreted cytokine in this assay, high-binding plates were coated with 5 μg/ml anti-IFN-γ (Mabtech, Stockholm, Sweden) diluted in PBS buffer at 4° C. overnight. […]

T cells in PBMCs [2] = assay: Granzyme B release by ELISA from PBMC stimulated with peptides or protein; conditions: breast cancer patient (BC243) vs 3 normal donors
From the text: (§1) FIG. 19. T cell stimulation by HERV-K peptides. Peptides (p73-76 and p18-135) or HERV-K SU fusion proteins were used to stimulate PBMC and evaluated in vitro for their ability to stimulate T cells in PBMCs from healthy subjects and/or cancer patients, based on Granzyme B (Top panel) and interlukin-2 (IL-2; bottom panel) release by ELISA. OD values of Granzyme B or IL-2 release were compared between normal donors (ND427478, ND329966, and ND341277) and cancer patients (BC243 and OC212).
(§2) Cancer patients were enrolled to evaluate HERV-K as a tumor associated antigen target. Patients provided written informed consent as part of an approved protocol (LAB04-0083) at MD Anderson Cancer Center prior to commencing the studies. […] HLA-A*02 expression in PBMCs obtained from cancer patients and healthy subjects was determined by flow cytometry with PE Mouse anti-human HLA-A2 mAb BB7.2 (BD Pharmingen; San Diego, Calif., USA). […] After 14 days of culture, the supernatants from cell culture media (PBMC pulsed with peptides or proteins) were harvested and tested for their ability to produce IFN-gamma or IL-2, and granzyme B release was also determined by enzyme-linked immunosorbent assay (ELISA) assay. […] Absorbance was measured after 10 min of incubation in the dark and the plate was read on a Wallac Victor 2 V Microplate Reader (PerkinElmer, Waltham, Mass.). […]

T cells in PBMCs [3] = assay: IL-2 release by ELISA from PBMC stimulated with peptides or protein; conditions: normal donors vs cancer patients
From the text: as §1, §2

IVS cells = assay: IFN-γ ELISPOT of IVS cells stimulated with HERV-K SU or TM antigen; conditions: ovarian cancer patient compared with normal female donor(s)
From the text: FIGS. 2A-D. IFN-γ ELISPOT was used to determine HERV-K-specific T cell response. (FIG. 2A) More spots (red box) were detected in IVS cells (DC+KSU) from an ovarian cancer patient with moderately to poorly differentiated adenocarcinoma, in comparison to three normal female donors (ND263559, 273010, and 273011; black boxes) stimulated with a single HERV-K SU protein. […] (FIG. 2B) More spots (red box for KSU and green box for KTM) were detected in IVS cells (DC+KSU) from an ovarian cancer patient (Acc 153) with high grade papillary serous carcinoma before surgery (0 month) or after surgery (6 months), compared to one normal donor (ND 273011) stimulated one time with HERV-K SU protein. IVS cells were generated from PBMC stimulated with a single HERV-K SU or TM antigen. No spot was detected in controls using KLH as antigen. (FIG. 2C) IFN-γ spots were detected in IVS cells (1×10^5 cells loaded) from cancer patients (#816463 and #618329: blood collected 6 months after surgery) but not in a breast cancer patient with invasive ductal carcinoma (#814349, collected 6 months after surgery) or a patient (717335) with a mass (no malignancy identified), stimulated one time with either HERV-K SU (surface domain of env protein) or TM (transmembrane domain) protein. DC pulsed with KLH served as control. […]

Row | Substance | IFN-γ release (T cells in PBMCs [1]; peripheral T cells from both healthy subjects (ND1007083) and cancer patients (BC 243)) | IFN-γ release (OD values) (T cells in PBMCs [1]) | granzyme B release (T cells in PBMCs [2]) | IL-2 release (T cells in PBMCs [3]) | IFN-γ release (T cells in PBMCs [1]; peripheral T cells from most cancer patients (OC222, OC210, OC212, BC 243)) | number of IFN-γ spots in IVS cells (IVS cells)
1 | IINLILILVCLFCLLLVCRCTQQLR [Peptide #18-135] | induce IFN-γ release | Higher IFN-γ release | to a greater extent than in 3 normal donors | in normal donors to a greater extent than in cancer patients | – | –
2 | SQTITCENCRLLSCIDSTFNWQHRILL [Peptide #73-76] | – | Higher IFN-γ release | to a greater extent than in 3 normal donors | in normal donors to a greater extent than in cancer patients | induce IFN-γ release | –
3 | keyhole limpet hemocyanin [KLH] | – | – | – | – | – | No spots were detected
